Laboratory results published in ChEMBL document CHEMBL1201862, “PubChem BioAssay data set” (2004).
Active and inactive are the calls of the source. No stated cut-off is given here; in the data, actives have a measured IC50 and inactives only a lower limit.

Experiments:
Type in all cases: functional
Caspase-3 = target: T1, Caspase-3 (Homo sapiens, UniProt P42574);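 further: Dose-response selectivity test against caspase-3 for candidate inhibitors of sentrin-specific proteases (SENPs)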
T1 sequence (P42574 whole entry): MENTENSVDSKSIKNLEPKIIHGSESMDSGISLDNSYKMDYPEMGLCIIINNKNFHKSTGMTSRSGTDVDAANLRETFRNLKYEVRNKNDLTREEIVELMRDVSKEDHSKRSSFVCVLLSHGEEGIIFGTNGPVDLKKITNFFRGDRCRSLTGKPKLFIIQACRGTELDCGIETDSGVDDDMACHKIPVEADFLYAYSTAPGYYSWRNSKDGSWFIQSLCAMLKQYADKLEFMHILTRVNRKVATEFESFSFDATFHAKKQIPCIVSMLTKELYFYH

[1] = target: T2, Sentrin-specific protease 8 (Homo sapiens, UniProt Q96LD8);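 further: luminescence read-out of SENP8 inhibition, dose-response confirmation following an ultra-high-throughput screen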
T2 sequence (Q96LD8 whole entry): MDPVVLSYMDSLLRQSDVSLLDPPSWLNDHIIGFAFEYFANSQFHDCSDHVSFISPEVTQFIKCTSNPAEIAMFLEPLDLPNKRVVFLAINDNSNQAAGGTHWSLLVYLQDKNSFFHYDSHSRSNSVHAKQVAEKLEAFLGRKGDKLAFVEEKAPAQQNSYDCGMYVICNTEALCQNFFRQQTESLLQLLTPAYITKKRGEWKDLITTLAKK

[2] = target: T3, Sentrin-specific protease 7 (Homo sapiens, UniProt Q9BQF6);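 further: Luminescence-based dose-response confirmation of ultra-high-throughput screening hits, measuring inhibition of SENP7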
T3 sequence (Q9BQF6 whole entry): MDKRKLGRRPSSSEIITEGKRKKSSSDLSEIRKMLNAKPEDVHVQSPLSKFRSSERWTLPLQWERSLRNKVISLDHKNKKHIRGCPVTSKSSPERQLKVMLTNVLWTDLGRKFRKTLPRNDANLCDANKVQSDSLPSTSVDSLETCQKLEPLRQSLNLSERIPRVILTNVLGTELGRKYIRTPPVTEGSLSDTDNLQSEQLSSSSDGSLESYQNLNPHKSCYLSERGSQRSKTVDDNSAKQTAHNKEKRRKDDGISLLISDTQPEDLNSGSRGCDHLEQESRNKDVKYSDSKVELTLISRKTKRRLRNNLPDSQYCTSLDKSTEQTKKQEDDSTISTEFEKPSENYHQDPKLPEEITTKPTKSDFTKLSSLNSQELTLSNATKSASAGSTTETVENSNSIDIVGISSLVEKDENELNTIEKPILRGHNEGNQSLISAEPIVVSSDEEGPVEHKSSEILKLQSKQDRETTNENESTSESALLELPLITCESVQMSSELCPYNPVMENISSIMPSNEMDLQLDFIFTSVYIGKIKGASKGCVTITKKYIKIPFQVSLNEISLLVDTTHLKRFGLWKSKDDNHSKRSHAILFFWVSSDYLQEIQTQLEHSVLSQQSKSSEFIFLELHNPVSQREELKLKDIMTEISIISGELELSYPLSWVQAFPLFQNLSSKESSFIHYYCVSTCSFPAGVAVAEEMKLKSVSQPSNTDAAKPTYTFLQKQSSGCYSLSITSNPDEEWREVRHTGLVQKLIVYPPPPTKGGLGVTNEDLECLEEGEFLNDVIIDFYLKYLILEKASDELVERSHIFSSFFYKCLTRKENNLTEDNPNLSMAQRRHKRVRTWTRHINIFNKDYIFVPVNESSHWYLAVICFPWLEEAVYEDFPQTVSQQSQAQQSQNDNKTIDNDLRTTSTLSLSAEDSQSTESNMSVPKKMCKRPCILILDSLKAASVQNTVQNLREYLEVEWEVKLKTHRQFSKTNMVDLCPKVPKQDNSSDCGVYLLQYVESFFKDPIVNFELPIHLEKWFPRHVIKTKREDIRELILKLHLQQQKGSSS

[3] = target: T4, Sentrin-specific protease 6 (Homo sapiens, UniProt Q9GZR1);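 further: Luminescence-based dose-response confirmatory assay of SENP6 inhibition, following up an ultra-high-throughput screen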
T4 sequence (Q9GZR1 whole entry): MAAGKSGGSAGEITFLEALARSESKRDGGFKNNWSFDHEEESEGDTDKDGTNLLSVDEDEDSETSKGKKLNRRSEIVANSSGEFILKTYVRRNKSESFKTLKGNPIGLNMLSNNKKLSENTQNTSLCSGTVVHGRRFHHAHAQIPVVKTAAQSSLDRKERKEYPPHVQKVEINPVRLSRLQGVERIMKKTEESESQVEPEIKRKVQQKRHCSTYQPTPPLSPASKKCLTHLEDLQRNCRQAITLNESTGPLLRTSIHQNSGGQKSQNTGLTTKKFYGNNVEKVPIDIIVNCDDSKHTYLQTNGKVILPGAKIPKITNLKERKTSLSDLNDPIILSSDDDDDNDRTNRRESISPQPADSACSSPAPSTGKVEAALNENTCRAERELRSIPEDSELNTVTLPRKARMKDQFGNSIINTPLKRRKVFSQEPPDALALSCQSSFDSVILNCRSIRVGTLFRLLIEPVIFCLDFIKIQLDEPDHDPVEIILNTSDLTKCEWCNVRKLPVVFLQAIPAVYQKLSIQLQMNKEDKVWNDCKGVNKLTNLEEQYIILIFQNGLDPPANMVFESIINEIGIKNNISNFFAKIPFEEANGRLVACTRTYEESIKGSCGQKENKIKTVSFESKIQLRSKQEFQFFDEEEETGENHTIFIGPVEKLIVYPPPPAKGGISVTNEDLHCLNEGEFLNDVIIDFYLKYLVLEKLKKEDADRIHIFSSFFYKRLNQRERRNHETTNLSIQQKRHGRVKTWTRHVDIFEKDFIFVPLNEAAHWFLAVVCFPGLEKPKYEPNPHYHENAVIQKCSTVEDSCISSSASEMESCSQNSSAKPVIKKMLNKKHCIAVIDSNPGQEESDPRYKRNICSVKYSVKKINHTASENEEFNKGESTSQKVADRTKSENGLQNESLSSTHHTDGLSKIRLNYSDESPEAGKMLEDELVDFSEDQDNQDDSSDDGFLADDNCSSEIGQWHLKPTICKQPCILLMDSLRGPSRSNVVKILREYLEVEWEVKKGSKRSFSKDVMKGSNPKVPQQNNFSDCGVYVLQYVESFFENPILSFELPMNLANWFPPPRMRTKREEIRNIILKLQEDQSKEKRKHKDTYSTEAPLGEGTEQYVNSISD

Measured: IC50

Nc1c(N2CCCC2)cc(Cl)c2nonc12
active: Caspase-3 9.05 µM | [1] 4.09 µM | [2] 4.09 µM | [3] 3.02 µM

O=C(NNc1cc(N2CCOCC2)nc(N2CCOCC2)n1)c1ccc([N+](=O)[O-])cc1
active: Caspase-3 32.4 µM | [1] 6.99 µM | [2] 6.14 µM | [3] 6.72 µM

Oc1ccc(/N=C/c2ccc(OCc3ccccc3)cc2)cc1
active: Caspase-3 14.3 µM | [1] 24.1 µM | [2] 14.6 µM | [3] 16.4 µM
